Where two headings read alike, the source gives them in different places.
Test: Plasma exposure (dried blood spot) after single oral dose
Format: in vivo
Details: male, Sprague Dawley, rat, whole blood (dried blood spot), po
Experimental: Male Sprague Dawley rats at 6 to 7 weeks were dosed orally by p.o. gavage with different doses of BTTQ formulated in 1% hydroxyethlycellulose (Dow Corning, Midland, MI, United States) (w/v), 0.25% polysorbate 80 (Sigma-Aldrich, St. Louis, MO, United States) (v/v), and 0.05% antifoam (v/v; Dow Corning, Midland, MI, United States) in purified water. Following dosing, ear temperature was measured by using a k-type thermocouple probe digital thermometer (Cole Parmer) every hour for 6 h and then at 24 h. Blood samples for plasma exposure measurement were obtained at the same time. Blood was collected via a tail snip directly into a 20-μL EDTA-coated capillary and immediately spotted onto a Whatman DMPK-C DBS card (GE Healthcare Bio-Sciences). Tail snips were performed by removing approximately 1 mm of the tail by using a scalpel. Blood flow was initiated by gentle squeezing of the tail. No analgesia or anesthesia was used during blood collections. A single sample and spot were collected per time point. The DBS cards were allowed to dry for approximately 2 h at room temperature, after which the cards were placed in a zip-top bag, stored, and shipped at ambient temperature.

[1] = 1 mg/kg, oral 1 mg/kg, FU 0.053, read-out: Unbound Concentration, individual animals
[2] = 1 mg/kg, oral 1 mg/kg, dried blood spot, read-out: Concentration, Mean
[3] = 1 mg/kg, oral 1 mg/kg, dried blood spot, read-out: Concentration, individual animals
[4] = 1 mg/kg, oral 1 mg/kg, FU 0.053, read-out: Unbound Concentration, Mean
[5] = 3 mg/kg, oral 3 mg/kg, FU 0.053, read-out: Unbound Concentration, Mean
[6] = 3 mg/kg, oral 3 mg/kg, FU 0.053, read-out: Unbound Concentration, individual animals
[7] = 3 mg/kg, oral 3 mg/kg, dried blood spot, read-out: Concentration, Mean
[8] = 3 mg/kg, oral 3 mg/kg, dried blood spot, read-out: Concentration, individual animals

**Q.** What does the source list for `O=c1c2nnc(C3(C4CC4)CC3)n2c2c(n1CC1CC1)CCCC2` [BTTQ, 1-[1,1′-bi(cyclopropyl)-1-yl]-5-(cyclopropylmethyl)-6,7,8,9-tetrahydro[1,2,4]triazolo[4,3-A]quinoxaline-4(5H)-one]?
**A.** concentration at 2 h [1]: 88.5 nM; concentration at 2 h [2]: 1650 nM; concentration at 2 h [3]: 1670 nM; concentration at 3 h [4]: 62.1 nM; concentration at 3 h [1]: 64.1 nM; concentration at 3 h [2]: 1170 nM; concentration at 3 h [3]: 1210 nM; concentration at 4 h [4]: 57.3 nM; concentration at 4 h [1]: 47.7 nM; concentration at 4 h [2]: 1080 nM; concentration at 4 h [3]: 900 nM; concentration at 5 h [4]: 49.6 nM; concentration at 5 h [1]: 41.1 nM; concentration at 5 h [2]: 935 nM; concentration at 5 h [3]: 775 nM; concentration at 6 h [4]: 41.3 nM; concentration at 6 h [1]: 41.3 nM; concentration at 6 h [2]: 780 nM; concentration at 6 h [3]: 779 nM; concentration at 24 h [4]: 2.13 nM; concentration at 24 h [2]: 40.2 nM; concentration at 1 h [5]: 197 nM; concentration at 1 h [6]: 142 nM; concentration at 1 h [7]: 3710 nM; concentration at 1 h [8]: 2670 nM; concentration at 2 h [5]: 195 nM; concentration at 2 h [6]: 166 nM; concentration at 2 h [7]: 3690 nM; concentration at 2 h [8]: 3140 nM; concentration at 3 h [5]: 168 nM; concentration at 3 h [6]: 169 nM; concentration at 3 h [7]: 3170 nM; concentration at 3 h [8]: 3180 nM; concentration at 4 h [5]: 148 nM; concentration at 4 h [6]: 155 nM; concentration at 4 h [7]: 2790 nM; concentration at 4 h [8]: 2920 nM; concentration at 5 h [5]: 115 nM; concentration at 5 h [6]: 142 nM

— article PMC7506137, “Selective Phosphodiesterase 1 Inhibitor BTTQ Reduces Blood Pressure in Spontaneously Hypertensive and Dahl Salt Sensitive Rats: Role of Peripheral Vasodilation” (Frontiers in Physiology, 2020)
